The results in this text go back to patent US20260132128A1, “COMPOUND FOR RECOVERING P53 MUTATION FUNCTION AND USE THEREOF” (SHENZHEN ZHONGGE BIOLOGICAL TECHNOLOGY CO., LTD., priority 2022, published 2026).

Series [1] is described as follows: Liver microsome stability test, mouse (MLM). As to conditions: mouse liver microsomes, NADPH; read-out: T1/2 (min) Mouse. In kind it is in vitro ADME. The method, then:
(§1) The 10 mM test compound/ketanserin (Energy Chemical, Cat. No. E020711) stock solution was diluted with acetonitrile to 0.5 mM compound/reference compound. The frozen 100 mM NADPH (MCE, Cat. No. HYF003/CS-4998) was diluted with phosphate buffer solution to a concentration of 6 mM; 20 mg/mL HLM (BioIVT, Cat. No. X008067) or MLM (BioIVT, Cat. No. M00501) was diluted with phosphate buffer solution to a concentration of 0.75 mg/ml, and added to a 96-round well plate, respectively, and shaken evenly on an oscillator at 600 rpm. The above oscillated samples were pipetted 3 times with an electric pipettor and dispensed into a new 96-well plate (containing NADPH group (n=2), NADPH-free group was added at 0 and 45 min (n=1)), and there were a total of 5 groups of 0, 5, 15, 30 and 45 min, respectively. After pre-incubation of the 5 groups of samples at 37° C. for 5 min, glacial acetonitrile was quickly added to the 0 min group for precipitation, and after rapid vortexing, K-Buffer or NADPH was added with an electric pipettor. The remaining groups were sequentially added with 6 mM NADPH to start the reaction in the order of 45, 30, 15 and 5 min samples, and K-Buffer solution was added to the NADPH-free group. After mixing at 1000 rpm in an oscillating mixer for 10 s, they were continuously incubated at 37° C. for the corresponding time. The reaction was terminated by quickly adding glacial acetonitrile internal standard using an electric pipettor; after vortexing at 900 rpm for 10 seconds, heat sealing was performed, oscillation was performed on an oscillator for 10 minutes, centrifugation was performed at 4000 rpm for 50 minutes, the supernatant was collected and diluted with pure water, and the test compound and the reference compound were quantified by LC-MS/MS analysis.
In general terms: Liver microsomes are vesicles of endoplasmic reticulum, rich in cytochrome P450 enzymes.

Another series addresses T1, CYP 3A4 (Homo sapiens, UniProt P08684).
T1 construct: purchased BioIVT X008067
Briefly: CYP 3A4 time-dependent inhibition test. The note with it: midazolam substrate. In kind it is in vitro ADME. The method, then:
CYP 3A4 and the test compound or mifepristone of various concentrations were added to a 96-deep well plate for pre-incubation. The plate was placed in a water bath and preheated at 37° C. for 5 min. For the 0 min pre-incubation samples, midazolam substrate was added to the incubation plate, then 10 mM NADPH solution was added, and the reaction was carried out in a 37° C. water bath for 5 min; for the 30 min pre-incubation samples with NADPH, 10 mM NADPH solution was added to the incubation plate, pre-incubated in a 37° C. water bath for 30 min, and then midazolam substrate was added and reacted in a 37° C. water bath for 5 min; for the 30 min pre-incubation samples without NADPH, the incubation plate was pre-incubated in a 37° C. water bath for 30 min, then midazolam substrate was added, 10 mM NADPH solution was added, and the reaction was carried out in a 37° C. water bath for 5 min. After the reaction was completed, the quenching solution (500 nM tolbutamide (Bide Pharmaceuticals, Cat. No. BD154332) and 10 nM terfenadine (Sigma, Cat. No. T96532)) were added to quench the reaction, and the plate was centrifuged at 3,220 g for 40 min at 4° C. The supernatant was pipetted into a new plate, the supernatant was diluted with pure water and mixed well, and the sample was analyzed using UPLC-MS/MS.

A short description of series [2]: Pharmacokinetic test in mice. As to conditions: male, ICR, mouse, plasma; for AUC / Cmax: 25 mg/kg, po 25 mpk; for clearance: 2.5 mg/kg, iv 2.5 mpk. In kind it is in vivo. The method, then: ICR male mice (15 to 35 g, 5 to 10 weeks old, Shanghai Xipuer-Bikai Experimental Animal Co., Ltd.) were selected as test animals in this study. The LC-MS/MS method was used to quantitatively determine drug concentrations in the plasma of mice at different time points after intravenous injection or oral gavage administration of the test compound to evaluate the pharmacokinetic characteristics of the compound in mice. The clear solution of the test compound was injected into ICR mice via the tail vein (without fasting, solvent: 40% hydroxypropyl-β-cyclodextrin) and administered to ICR mice by oral gavage (fasting for 10 to 14 hours, free drinking water, solvent: 0.2% hydroxypropyl cellulose, 0.5% Tween 80). For intravenous administration, blood was collected from the submandibular venous plexus at 0.033, 0.083, 0.25, 0.5, 1, 2, 4, 8, and 24 hours after administration, placed in an anticoagulant tube with EDTA-K2 (Jiangsu Kangjian Medical Supplies Co., Ltd.), mixed, and centrifuged at 2-8° C., 6800 g for 6 minutes to obtain plasma; for oral gavage administration, blood was collected from the submandibular venous plexus at 0.083, 0.25, 0.5, 1, 2, 4, 6, 8, and 24 hours after administration, placed in an anticoagulant tube with EDTA-K2 (Jiangsu Kangjian Medical Supplies Co., Ltd.), mixed, and centrifuged at 2-8° C., 6800 g for 6 minutes to obtain plasma. The blood drug concentration was determined by LC-MS/MS, and the relevant pharmacokinetic parameters were calculated by the non-compartmental linear logarithmic trapezoidal method using Phoenix WinNonlin™ Version 7.0 (Pharsight, USA) pharmacokinetic software.

A short description of series [3]: Liver microsome stability test, human (HLM). In kind it is in vitro ADME. As to conditions: human liver microsomes, NADPH; read-out: T1/2 (min) Human. The method, then:
as §1

[4] abbreviates: 0 min pre-incubation, read-out: IC50 (μM) 0 min.
Where [5] appears, read: 30 min pre-incubation with NADPH, read-out: IC50 (μM) 30 min, with NADPH.
Setting [6] is: 30 min pre-incubation without NADPH, read-out: IC50 (μM) 30 min, without NADPH.

Read-outs that look alike come from different tables or passages of the source.

T1 sequence (P08684 whole entry): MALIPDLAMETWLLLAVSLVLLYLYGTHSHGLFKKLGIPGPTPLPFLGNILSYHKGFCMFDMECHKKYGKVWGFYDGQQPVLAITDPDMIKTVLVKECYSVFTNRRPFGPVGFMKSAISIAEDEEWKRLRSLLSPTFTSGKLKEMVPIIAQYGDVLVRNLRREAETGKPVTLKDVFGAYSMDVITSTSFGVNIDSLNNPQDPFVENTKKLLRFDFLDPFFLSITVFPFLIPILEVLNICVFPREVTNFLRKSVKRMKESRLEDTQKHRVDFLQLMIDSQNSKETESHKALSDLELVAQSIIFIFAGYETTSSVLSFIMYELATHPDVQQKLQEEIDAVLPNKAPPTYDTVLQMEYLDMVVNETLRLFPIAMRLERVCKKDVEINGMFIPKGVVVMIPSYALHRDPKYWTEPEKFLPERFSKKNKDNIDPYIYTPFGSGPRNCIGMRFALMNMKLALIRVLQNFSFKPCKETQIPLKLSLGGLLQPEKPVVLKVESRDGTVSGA

Consider `CNC(=O)c1ccc(NCC#Cc2nc3c(NC4CCC(N5CC6(COC6)C5)CC4F)cccn3c2CC(F)(F)F)c(OC)c1` (single isomer, unassigned) [Compound 35-6i], for which, in series [1], the half-life is 19.2 min. Moreover, at CYP 3A4 (setting [4]), the IC50 came to 7.48 µM. Further, the IC50 on CYP 3A4 (setting [5]) turned out to be 3.01 µM. Moreover, on CYP 3A4 (setting [6]), the IC50 is 7.46 µM. In series [2], this compound came in with an AUC of 19700 ng·h/mL, a Cmax of 6860 ng/mL and a clearance of 20 mL/min/kg.
With `[2H]C([2H])([2H])NC(=O)c1ccc(NCC#Cc2cc3c(NC4CCC(N5CC6(COC6)C5)CC4F)cccn3c2CC(F)(F)F)c(OC([2H])([2H])[2H])c1` (single isomer, unassigned) [Compound 74d], the half-life in series [3] is 55.8 min; in series [1] it was 22 min. Besides, the IC50 on CYP 3A4 (setting [4]) was 4.55 µM; at CYP 3A4 (setting [5]), 1.56 µM; at CYP 3A4 (setting [6]), 5.91 µM. Further, in series [2], the AUC was determined as 17400 ng·h/mL. The Cmax in series [2] was 4160 ng/mL. In series [2], this compound returned a clearance of 17 mL/min/kg.
As for `[2H]C([2H])([2H])NC(=O)c1ccc(NCC#Cc2nc3c(NC4CC[C@@H](N5CC6(COC6)C5)C[C@@H]4F)cccn3c2CC(F)(F)F)c(OC([2H])([2H])[2H])c1` (stereo partly drawn) [Compound 64], the results for the half-life in series [3] and in series [1] were 44 min and 55 min, respectively.
Consider `CNC(=O)c1ccc(NCC#Cc2nc3c(N[C@@H]4CCN(C)C[C@@H]4F)cccn3c2CC(F)(F)F)c(OC)c1` [Compound 5], for which, at CYP 3A4 (setting [4]), the IC50 stood at 8.05 µM. In addition, the IC50 on CYP 3A4 (setting [5]) stood at 1.89 µM. For the same compound, at CYP 3A4 (setting [6]), the IC50 came out at 8.36 µM. Further, in series [2], the AUC was determined as 4070 ng·h/mL, the peak level (Cmax) was 1140 ng/mL and the clearance stood at 54 mL/min/kg.
As for `COc1cc(C(=O)NC2CC2)ccc1NCC#Cc1nc2c(NC3CC[C@@H](N4CC5(COC5)C4)C[C@@H]3F)cccn2c1CC(F)(F)F` (stereo partly drawn) [Compound 54], the results for the half-life in series [3] and in series [1] were 32 min and 78.4 min, respectively.
The corresponding values for `CNC(=O)c1ccc(NCC#Cc2nc3c(NC4CC[C@@H](N5CC6(COC6)C5)C[C@@H]4F)cccn3c2CC(F)(F)F)c(OCF)c1` (stereo partly drawn) [Compound 58] are 37.5 min and 33 min.

The term IC50 denotes the concentration needed to halve the response being measured. What is called AUC is the area under the concentration-time curve, a measure of exposure. A high value points to more exposure. As a reminder, the Cmax is the peak of the concentration-time curve. As a reminder, the clearance is a measure of how efficiently the substance is removed, as volume per time.
